Measurements as given in US8211922B2, “1-methylnicotinamide derivatives and formulations for treatment of lipoprotein abnormalities” (Cortria Corporation, priority 2005, dated 2012).
Several values for one entry are separate records, joined by “and”; a condition that tells them apart may be missing. Equal entries are not always repeated.

How the values were obtained:
[1] = system: dyslipidemic and cardiologic patients; assay: Anti-atherogenic effect of MNA after short-term use (2 weeks), plasma lipids in patients; format: in vivo, human; conditions: for HDL change: after 2 weeks therapy
Experimental: The anti-atherogenic effect of MNA was investigated in […] dyslipidemic and cardiologic patients. The enrollment criteria was: high level of TG (˜250 mg/dl) and/or high level of total cholesterol (TC) (≧200 mg/dl). The mean age of the patients was 57.5 (range 37-81 years). The enrolled patients were divided into two groups: dyslipidemic patients (4 patients) and dyslipidemic patients after acute coronary failure (myocardial infarction) (12 patients). The patients were treated with MNA for 2 weeks. The MNA was administered orally, three times a day, one capsule (30 mg MNA) after meal. The 16 patients have finished clinical examination.
The plasma levels of TC, TG, and HDL were measured at baseline and after 2 weeks of therapy. The level of LDL was measured in those cases where it was possible (due to high TG level).
Patient nos. 1-4 were dyslipidemic. Patient nos. 5-16 were dyslipidemic patients after acute coronary failure (myocardial infarction).

dyslipidemic patients = assay: Anti-atherogenic effect of MNA after a single administration, plasma lipids; format: in vivo, human; conditions: for HDL % / TG % / TG/HDL % / Total Cholesterol %: change vs time 0; for TG: person
Experimental: The anti-atherogenic effect of NINA after single administration was also investigated in dyslipidemic patients. The patient was treated with 100 mg MNA. The plasma levels of TC, TG, and HDL were measured at baseline and after 1 and 3 hours. The level of LDL was not measured due to high TG level. […] The increase of the HDL (24.8 vs. 29.0 mg/dl) was observed after the administration. The significant reduction of TG/HDL ratio (24.0 vs. 16.5) was observed.

[2] = system: rats fed a hypertriglyceridemic diet; assay: Rat model of hypertriglyceridemia (high-fructose diet), plasma triglyceride; format: in vivo; conditions: Wistar rats, AIN93 diet with 60% fructose 8 weeks; 100 mg/kg MNA in drinking water for the last 4 weeks; FIG. 1
Experimental: Rats fed a high-fructose diet develop hypertriglyceridemia, insulin resistance and a mild degree of hypertension abnormalities that mimic metabolic syndrome in humans (Boehm and Claudi-Boehm, Scand J Clin Lab Invest Suppl. 2005; 240:3-13). […] One group was fed a control diet (basal AIN93) for 8 weeks, the second was fed an AIN93 diet supplemented with 60% fructose for 8 weeks, and the third was fed an AIN93 diet supplemented with 60% fructose that was additionally treated with 100 mg/kg of MNA for the last 4 weeks (after hypertriglicerydemia fully develops) and was given to drinking water. At the end of experiments rats were anesthetized, and blood was withdrawn and anticoagulated. Triglyceride level in plasma was measured by standard spectophotometric technique using commercially available kits.

[3] = system: patients on permanent therapy with simvastatin; assay: Safety of co-administration of MNA with statins; format: in vivo, human
Experimental: A group of 10 patients (4 females and 6 males, ages 38-79) on permanent therapy with simvastatin (10-20 mg/day) were selected for the study. In addition to simvastatin each patient received MNA in daily dose of 90 mg/day for six weeks. The clinical chemistry parameters were monitored during three doctor's visits: two weeks before, just before and after six weeks of MNA administration.

[4] = system: patients on permanent therapy with simvastatin or atorvastatin; assay: Long term MNA use in patients on permanent therapy with statins, lipoprotein levels; format: in vivo, human
Experimental: A group of 8 patients (5 females and 3 males, ages 59-85) on permanent therapy with simvastatin or atorvastatin (10-20 mg/day) were selected for the study. MNA in a daily dose of 90-180 mg was co-administrated for a period of 3 to 42 months. The liporotein levels for each patient were monitored in every 1 to 3 months. […] The changes varied from patient to patient within a limit −5% to −42%. The appropriate changes in LDL were within −12% to +17% and in HDL within −6% to +37%.

PGI2 = PGI2 release
Chemical stability = format: physicochemical
[5] = 30 mg MNA orally three times a day, after 2 weeks, individual patients
[6] = 30 mg MNA orally three times a day, after 2 weeks, individual patients nos. 1-16
[7] = change visit 2 vs visit 1, 30 mg MNA orally three times a day, 2 weeks, individual patients nos. 1-16
[8] = change visit 2 vs visit 1, 2 weeks, individual patients
[9] = mean of 16 patients, 30 mg MNA orally three times a day, after 2 weeks
[10] = mean of 16 patients, after 2 weeks
[11] = mean of 16 patients, change visit 2 vs visit 1, 2 weeks
[12] = MNA 90 mg/day for six weeks co-administered with simvastatin (10-20 mg/day), 10 patients

Substance: 1-methylnicotinamide chloride [MNA]
- Glucose visit 2 [1, 5]: 152 mg/dl and 81 mg/dl and 89 mg/dl (2×) and 90 mg/dl and 101 mg/dl and 129 mg/dl and 96 mg/dl (2×) and 82 mg/dl and 113 mg/dl and 128 mg/dl and 97 mg/dl and 111 mg/dl
- LDL visit 2 [1, 5]: 162 mg/dL and 171 mg/dL and 114 mg/dL and 82 mg/dL and 121 mg/dL and 111 mg/dL and 81 mg/dL and 149 mg/dL and 178 mg/dL and 148 mg/dL
- Uric Acid visit 2 [1, 5]: 7.2 mg/dL and 4.4 mg/dL and 8.9 mg/dL and 9.6 mg/dL and 6.6 mg/dL and 5.7 mg/dL and 5.3 mg/dL and 5.31 mg/dL and 5.26 mg/dL and 5.8 mg/dL and 7.33 mg/dL
- HDL visit 2 [1, 6]: 40 mg/dl and 41 mg/dl (2×) and 59 mg/dl and 31 mg/dl and 45 mg/dl (3×) and 46 mg/dl and 37 mg/dl and 36 mg/dl and 29 mg/dl and 38 mg/dl and 67 mg/dl and 72 mg/dl and 42 mg/dl
- Total Cholesterol visit 2 [1, 6]: 251 mg/dL and 260 mg/dL and 208 mg/dL and 155 mg/dL and 130 mg/dL and 203 mg/dL and 194 mg/dL and 159 mg/dL and 253 mg/dL and 271 mg/dL and 229 mg/dL and 146 mg/dL and 280 mg/dL and 188 mg/dL and 243 mg/dL and 231 mg/dL
- TG/HDL ratio ([1]; after 2 weeks therapy (baseline 9.60)): 5.25
- HDL change ([1]; group of dyslipidemic patients): substantial increase
- HDL change ([1]; group of dyslipidemic patients after acute coronary failure (myocardial infarction)): not observed
- LDL % ([1]; change visit 2 vs visit 1, 30 mg MNA orally three times a day, 2 weeks, individual patients): 18.25% and 23.91% and 107.27% and −40.58% and 0.83% and −23.97% and −35.71% and 14.62% and 78.00% and 12.98%
- HDL % [1, 7]: 11.11% and 7.89% and −1.67% and −8.82% and −25.45% and −18.18% and −8.00% and −15.91% and −14.29% (2×) and 9.76% and 0.00% and −22.45% and 31.37% and 36.36% and 71.43%
- Total Cholesterol % [1, 7]: 5.91% and −5.11% and 8.33% and −38.74% and −43.97% and −17.14% and −24.51% and −31.17% and −4.17% and −12.58% and 3.62% and −39.67% and −6.98% and 2.73% and −17.06% and −4.94%
- Glucose % [1, 8]: −8.98% and 2.53% and 7.23% and −25.62% and 5.21% and 17.27% and −19.33% and 0.00% and 9.09% and 18.95% and 8.54% and −10.49% and −1.02% and 4.72%
- Uric Acid % [1, 8]: −16.28% and 2.33% and −38.62% and 37.14% and 6.45% and 0.00% and −23.19% and 0.95% and −2.59% and −1.69% and 21.96%
- TG/HDL % ([1]; change visit 2 vs visit 1, 2 weeks, individual patients nos. 1-16): −32.29% and −54.61% and −54.01% and −43.95% and −41.63% and −36.79% and −33.19% and −19.29% and −14.21% and −60.02% and −15.08% and −68.96% and −26.10% and −59.00% and −84.18% and −3.72%
- TG visit 2, Mean Value [1, 9]: 216 mg/dL and 216.31 mg/dL
- Total Cholesterol visit 2, Mean Value [1, 9]: 212 mg/dL and 212.56 mg/dL
- HDL visit 2, Mean Value [1, 10]: 44.63 mg/dL
- TG/HDL visit 2, Mean Value [1, 10]: 5.25
- HDL %, Mean Value [1, 11]: 0.85%
- TG %, Mean Value [1, 11]: −47.2% and −47.18%
- TG/HDL %, Mean Value [1, 11]: −45.32%
- Total Cholesterol %, Mean Value [1, 11]: −14.50%
- LDL visit 2, Mean Value ([1]; mean of patients with LDL measured, after 2 weeks): 131.70 mg/dL
- LDL %, Mean Value ([1]; mean of patients with LDL measured, change visit 2 vs visit 1, 2 weeks): 7.86%
- TG/HDL ratio (dyslipidemic patients; after the administration of 100 mg MNA (base-line 24.0)): 16.5
- HDL (dyslipidemic patients; after the administration of 100 mg MNA (base-line 24.8)): 29.0 mg/dL
- TG level (dyslipidemic patients; after the administration of 100 mg MNA (base-line 596)): 479 mg/dL
- HDL % (dyslipidemic patients; single 100 mg MNA, 1 h): 2.82%
- TG % (dyslipidemic patients; single 100 mg MNA, 1 h): −5.03%
- TG/HDL % (dyslipidemic patients; single 100 mg MNA, 1 h): −7.64%
- Total Cholesterol % (dyslipidemic patients; single 100 mg MNA, 1 h): 1.08%
- HDL % (dyslipidemic patients; single 100 mg MNA, 3 h): 16.94%
- TG % (dyslipidemic patients; single 100 mg MNA, 3 h): -19.63%
- TG/HDL % (dyslipidemic patients; single 100 mg MNA, 3 h): −31.27%
- Total Cholesterol % (dyslipidemic patients; single 100 mg MNA, 3 h): 4.84%
- TG (dyslipidemic patients; single 100 mg MNA, 1 h): 566 mg/dL
- TG (dyslipidemic patients; single 100 mg MNA, 3 h): 479 mg/dL
- HDL (dyslipidemic patients; single 100 mg MNA, 1 h): 25.5 mg/dL
- TG/HDL (dyslipidemic patients; single 100 mg MNA, 1 h): 22.20
- Total Cholesterol (dyslipidemic patients; single 100 mg MNA, 1 h): 188 mg/dL
- HDL (dyslipidemic patients; single 100 mg MNA, 3 h): 29.0 mg/dL
- TG/HDL (dyslipidemic patients; single 100 mg MNA, 3 h): 16.52
- Total Cholesterol (dyslipidemic patients; single 100 mg MNA, 3 h): 195 mg/dL
- Triglyceride level in plasma [2]: lowers triglyceride levels
- Clinical chemistry parameters (liver enzymes AST and ALT, creatinine, urea, glucose and homocysteine) [3, 12]: not changed within the measurements accuracy
- Negative effects on patient examination [3, 12]: no negative effects were observed
- Adverse synergistic effects ([3]; MNA co-administration with statins): does not result in any adverse synergistic effects
- HDL ([4]; co-administration with statin, patients with a low starting HDL level (<40 mg/dl)): particularly remarkable increase
- Triglyceride (TG) level ([4]; long term co-administration of MNA with simvastatin or atorvastatin, in general): reduction
- Negative side effects ([4]; long term co-administration of MNA with statins): Neither patients nor doctors involved with this study have declared any negative side effects
- PGI2 release (PGI2): releases PGI2
- Chemical stability (Chemical stability): chemically very stable
